One data set deals with Mus musculus. Put plainly: Toxicity in ip dosed C3H X DBA2 F1 hybrid mouse […] with mouse L1210 cells on day 0 and dosed once daily on days 1 to 5 measured after 50 days. Particulars: in vivo, 1200 h. In kind it is organism-based.
A short description of data set [1]: Lipophilic-hydrophilic balance, Rm of the compound by partition chromatography. It is filed as physicochemical.
Another data set concerns L1210. Put plainly: Antitumor activity against mouse L1210 cells […] in ip dosed C3H X DBA2 F1 hybrid mouse on day 0 and dosed at LD10 level once daily on days 1 to 5 assessed as increase in life span relative to control. In kind it is functional.

Data on 25 compounds can be found in ChEMBL document CHEMBL3228010, “Potential antitumor agents. 29. Quantitative structure-activity relationships for the antileukemic bisquaternary ammonium heterocycles” (J Med Chem, 1979).

Where only a bound is given, the exact number is not on record here.

`CC[n+]1cccc2cc(NC(=O)c3ccc(NC(=O)c4ccc5c(ccc[n+]5CC)c4)cc3)ccc21.Cc1ccc(S(=O)(=O)[O-])cc1.Cc1ccc(S(=O)(=O)[O-])cc1` had an LD10 in the data set on Mus musculus of 4 mg/kg. The Rm in data set [1] is 0.02. In addition, the “log(ILSmax)” value in the data set with L1210 was less than 1.4.
For `CC[n+]1ccc(Nc2ccc(NC(=O)CCCCCCC(=O)Nc3ccc(Nc4cc[n+](CC)cc4)cc3)cc2)cc1.[Br-].[Br-]` the same measures were 10 mg/kg, 0.83 and less than 1.4.
For `CC[n+]1cccc(NC(=O)c2ccc(NC(=O)c3ccc(C(=O)Nc4ccc(C(=O)Nc5ccc[n+](CC)c5)cc4C)cc3)c(C)c2)c1.Cc1ccc(S(=O)(=O)[O-])cc1.Cc1ccc(S(=O)(=O)[O-])cc1` the same measures were 18 mg/kg, 0.47 and less than 1.4.
Consider `CCCC[n+]1cccc2cc(NC(=O)c3ccc(NC(=O)c4ccc5c(ccc[n+]5CCCC)c4)cc3)ccc21.Cc1ccc(S(=O)(=O)[O-])cc1.Cc1ccc(S(=O)(=O)[O-])cc1`, for which the LD10 in the data set with Mus musculus was found to be 200 mg/kg. The compound also registered a Rm in data set [1] of 0.59. In the data set with L1210, the “log(ILSmax)” value was less than 1.4.
In turn, `CCC[n+]1cccc(NC(=O)c2ccc(NC(=O)c3ccc(C(=O)Nc4ccc(C(=O)Nc5ccc[n+](CCC)c5)cc4)c(N)c3)cc2)c1.Cc1ccc(S(=O)(=O)[O-])cc1.Cc1ccc(S(=O)(=O)[O-])cc1` yielded an LD10 with Mus musculus of 47 mg/kg. The compound also had a Rm in data set [1] of 0.2. The “log(ILSmax)” value in the data set on L1210 is given as less than 1.4.
Take `C[n+]1cccc2cc(NC(=O)CCc3ccc(C(=O)Nc4ccc5c(ccc[n+]5C)c4)cc3)ccc21.Cc1ccc(S(=O)(=O)[O-])cc1.Cc1ccc(S(=O)(=O)[O-])cc1`: in the data set on Mus musculus, the LD10 amounted to 270 mg/kg. In data set [1], this compound gave a Rm of 0.85. Moreover, in the data set with L1210, the “log(ILSmax)” value is reported as less than 1.4.
For `CC[n+]1cccc(NC(=O)c2ccc(NC(=O)c3ccc(C(=O)Nc4ccc[n+](CC)c4)cc3)cc2)c1.Cc1ccc(S(=O)(=O)[O-])cc1.Cc1ccc(S(=O)(=O)[O-])cc1` the same measures were 8 mg/kg, 0.3 and less than 1.4.
For `CC[n+]1cccc2cc(NC(=O)c3ccc(C(=O)Nc4ccc5c(ccc[n+]5CC)c4)c(N)c3)ccc21.Cc1ccc(S(=O)(=O)[O-])cc1.Cc1ccc(S(=O)(=O)[O-])cc1` the same measures were 6 mg/kg, -0.01 and less than 1.4.
In the data set on Mus musculus, `C[n+]1cccc2cc(NC(=O)COc3ccc(C(=O)Nc4ccc5c(ccc[n+]5C)c4)cc3)ccc21.Cc1ccc(S(=O)(=O)[O-])cc1.Cc1ccc(S(=O)(=O)[O-])cc1` showed an LD10 of 0.6 mg/kg. In data set [1], this compound yielded a Rm of -0.3. For the same compound, the “log(ILSmax)” value in the data set on L1210 was less than 1.4.
As for `CC[n+]1cccc2cc(NC(=O)CCc3ccc(C(=O)Nc4ccc5c(ccc[n+]5CC)c4)cc3)ccc21.Cc1ccc(S(=O)(=O)[O-])cc1.Cc1ccc(S(=O)(=O)[O-])cc1`, the LD10 with Mus musculus is 1.6 mg/kg. The compound further yielded a Rm in data set [1] of 1.1. For the same compound, in the data set with L1210, the “log(ILSmax)” value is reported as less than 1.4.
For `C[n+]1ccccc1NC(=O)c1ccc(NC(=O)c2ccc(C(=O)Nc3ccc(C(=O)Nc4cccc[n+]4C)cc3)cc2)cc1.Cc1ccc(S(=O)(=O)[O-])cc1.Cc1ccc(S(=O)(=O)[O-])cc1` the same measures were 7 mg/kg, 0.11 and less than 1.4.
On to `CCC[n+]1ccc(Nc2ccc(NC(=O)c3ccc(Nc4cc[n+](CCC)c5ccccc45)cc3N)cc2N)cc1.[I-].[I-]`, for which, in the data set on Mus musculus, the LD10 amounted to 15 mg/kg. Also, the Rm in data set [1] stood at 0.63. In addition, the “log(ILSmax)” value with L1210 is less than 1.4.
For `CCC[n+]1cccc(NC(=O)c2ccc(NC(=O)c3ccc(C(=O)Nc4ccc[n+](CCC)c4)cc3)cc2)c1.Cc1ccc(S(=O)(=O)[O-])cc1.Cc1ccc(S(=O)(=O)[O-])cc1` the same measures were 15 mg/kg, 0.65 and less than 1.4.
`C[n+]1cccc2cc(NC(=O)Cc3ccc(CC(=O)Nc4ccc5c(ccc[n+]5C)c4)cc3)ccc21.Cc1ccc(S(=O)(=O)[O-])cc1.Cc1ccc(S(=O)(=O)[O-])cc1` gave a Rm in data set [1] of 0.07.
As for `CC[n+]1ccc(Nc2ccc(NC(=O)c3ccc(Nc4cc[n+](CC)c5ccccc45)cc3N)cc2N)cc1.[I-].[I-]`, in the data set with Mus musculus, the LD10 is 20 mg/kg. In addition, the Rm in data set [1] was 0.35. Also, the “log(ILSmax)” value with L1210 is less than 1.4.
`CCC[n+]1cccc(NC(=O)c2ccc(NC(=O)C34CCC(C(=O)Nc5ccc(C(=O)Nc6ccc[n+](CCC)c6)cc5)(CC3)CC4)cc2)c1.Cc1ccc(S(=O)(=O)[O-])cc1.Cc1ccc(S(=O)(=O)[O-])cc1` displayed an LD10 in the data set with Mus musculus of 30 mg/kg. Besides, the Rm in data set [1] is on record as 0.86. The “log(ILSmax)” value in the data set with L1210 was 1.54.
For `CC[n+]1ccccc1Nc1ccc(NC(=O)c2ccc(C(=O)Nc3ccc(Nc4cccc[n+]4CC)cc3)cc2)cc1.[I-].[I-]` the same measures were 16 mg/kg, 0.53 and less than 1.4.
For `CCCCC[n+]1cccc2cc(NC(=O)c3ccc(C(=O)Nc4ccc5c(ccc[n+]5CCCCC)c4)nc3)ccc21.Cc1ccc(S(=O)(=O)[O-])cc1.Cc1ccc(S(=O)(=O)[O-])cc1` the same measures were 250 mg/kg, 0.6 and less than 1.4.
In the data set with Mus musculus, `CCC[n+]1cccc(NC(=O)c2ccc(NC(=O)c3ccc(C(=O)Nc4ccc(C(=O)Nc5ccc[n+](CCC)c5)cc4)c(C)c3)cc2)c1.Cc1ccc(S(=O)(=O)[O-])cc1.Cc1ccc(S(=O)(=O)[O-])cc1` had an LD10 of 30 mg/kg. Besides, the Rm in data set [1] stood at 0.75. Also, the “log(ILSmax)” value in the data set with L1210 was less than 1.4.
`C[n+]1ccccc1-c1ccc(NC(=O)c2ccc(C(=O)Nc3ccc(-c4cccc[n+]4C)cc3)cc2)cc1.Cc1ccc(S(=O)(=O)[O-])cc1.Cc1ccc(S(=O)(=O)[O-])cc1` had an LD10 in the data set with Mus musculus of 10 mg/kg. Besides, in data set [1], the Rm was determined as 0.11. Besides, the “log(ILSmax)” value in the data set on L1210 is recorded as less than 1.4.
For `C[n+]1cccc2cc(NC(=O)c3ccc(C(=O)Nc4ccc5c(ccc[n+]5C)c4)cc3)ccc21.Cc1ccc(S(=O)(=O)[O-])cc1.Cc1ccc(S(=O)(=O)[O-])cc1` the same measures were 5 mg/kg, -0.21 and less than 1.4.
For `C[n+]1cccc2cc(NC(=O)/C=C/c3ccc(C(=O)Nc4ccc5c(ccc[n+]5C)c4)cc3)ccc21.Cc1ccc(S(=O)(=O)[O-])cc1.Cc1ccc(S(=O)(=O)[O-])cc1` the same measures were 3 mg/kg, -0.2 and less than 1.4.
For `CCC[n+]1cccc2cc(NC(=O)CCc3ccc(C(=O)Nc4ccc5c(ccc[n+]5CCC)c4)cc3)ccc21.Cc1ccc(S(=O)(=O)[O-])cc1.Cc1ccc(S(=O)(=O)[O-])cc1` the same measures were 2 mg/kg, 1.25 and less than 1.4.
In the case of `CCCC[n+]1cccc2cc(NC(=O)Cc3ccc(CC(=O)Nc4ccc5c(ccc[n+]5CCCC)c4)cc3)ccc21.Cc1ccc(S(=O)(=O)[O-])cc1.Cc1ccc(S(=O)(=O)[O-])cc1`, in data set [1], the Rm amounted to 0.92.
In turn, `CC(=NNC(=N)N)c1ccc(NC(=O)c2ccc(C(=O)Nc3ccc(Nc4cc[n+](C)cc4)cc3)cc2)cc1.Cc1ccc(S(=O)(=O)O)cc1.Cc1ccc(S(=O)(=O)[O-])cc1` had a Rm in data set [1] of -0.15.
